Tests used:
mouse or rat = assay: Elevated platform at 75 cm height: falling from the platform and locomotion; assay type: in vivo; details: 0.2 mg/kg i.p.; platform at 75 cm height
Excerpt: Most mice and rats do jump onto the ground when the platform is raised by 50 cm but not when it is raised by about 75 cm. […] If a manipulation does induce jumping onto or falling on the ground, the experiment cannot be continued with the group of animals displaying this behaviour. Lower the doses if using drugs. One can prevent animals from sliding from the platform by using a ledge (not higher than 0.5 cm height) on each side adjacent to the void space. […] At 100 cm height, the test is more anxiogenic (3) and it is likely to cancel its sensitivity to experimental manipulations. Because of animal welfare regulations, it is advised that a soft carpet (polyethylene foam map about 3-5 cm thick) is laid on the ground beneath the slopes. It is preferable that it is grey or dark unicolor and covers all the visible areas of the floor within the curtain perimeter that surrounds the test apparatus.

Balb/c mice = assay: Open space anxiety test: elevated platform with steep slopes; details: amphetamine 5 and 10 mg/kg vs diazepam 0.5, 1 and 3 mg/kg

SMILES	effect on locomotion (mouse or rat)	falling from the platform (mouse or rat)	number of crossings on the platform (motor activity) in amphetamine treated mice compared to diazepam treated mice (Balb/c mice)	number of crossings on the platform (motor activity) in amphetamine treated mice compared to diazepam treated mice (Balb/c mice; listed as Amphetamine)
C[C@]12N[C@H](Cc3ccccc31)c1ccccc12 [MK-801]	induced uncoordinated, unsteady locomotion	falling from the platform		
CC(N)Cc1ccccc1 (stereo not shown) [amphetamine]			double	at least two-fold

Reference: patent US20120079993A1, “B[…]” (UNIVERSITY OF DURHAM, priority 2010, published 2012)
